The target in this test is Cdc42 (Homo sapiens, UniProt P60953). Description: Cdc42-GEF-assay, additional compound screening. The note with it: for % ZCL367 (inhibitor activity): percentages of ZCL367 normalized to batch, less than 100% = more potent inhibitor; for % ZCL278 (with GEF): assay slope relative to ZCL278, normalized to batch; for % ZCL278 (without GEF): baseline slope relative to ZCL278, normalized to batch; for % ZCL278 (activator activity): percentages of ZCL278 activity normalized to batch, more than 100% = more potent activator, Table 9. Format: biochemical. Set-up: purchased Cytoskeleton Inc. The procedure:
Rho-GEF IC50 Assay: Rho-GEF assay (Cytoskeleton Inc., Denver, Colorado, United States of America) was conducted per manufacturer's instructions (λex=360 nm, λem=460 nm). Briefly, a solution (50 μL) of purified Rho GTPase (1 μM) and mant-GTP (1.5 μM) with or without compound (0.001-500 μM) was prepared and the absorbance monitored for 10-30 min to obtain the background/baseline. The addition of purified GEF/DH domain (0.08-0.2 μM) was carried out simultaneously and the absorbance was recorded for 30-45 min. The linear slope following the addition of the GEF was calculated and expressed as percentage of the control and plotted on an IC50 curve.
Cdc42 (1 μM) was incubated with mant-GTP (1.5 μM) and varying concentrations of ZCL278, ZCL279, or ZCL367 (5-500 μM). Fluorescent readings were taken every minute for 10 m to acquire the baseline. The GEF/DH domain (0.08-0.2 μM) was added followed by readings taken every minute for another 30 m. The linear phase was calculated from within the time period of 12-22 m. Cdc42 (1 μM) was incubated with mant-GTP (1.5 μM) and varying concentrations of ZCL278, ZCL279, or ZCL367 (5-500 μM). Fluorescent readings were taken every minute for 30 m to monitor the binding of mant-GTP in the absence of GEF/DH domain.
Cdc42-GEF-assays were conducted on additional screening compounds in batches of 9 compounds per batch as described above in Example 2 using ZCL278 and ZCL367 as standards. Screening compounds were taken from the Specs Chemistry Database of 197,000 compounds for small molecule or the National Cancer Institute Compound Library. […] These compounds promote Cdc42-mantGTP binding without GEF. It is possible that these compounds can inhibit Cdc42-mantGTP binding with GEF. […] These compounds appear to have activity like ZCL279. […] However, upon the addition of GEF, the compounds appear to facilitate the binding of mantGTP to Cdc42 (high assay slope, relative to ZCL278)

Each structure is given as a SMILES string. Peptide text beside a SMILES is read from it. * marks the point of attachment. Trt = c1ccc(C(c2ccccc2)(c2ccccc2)*)cc1; Cbz = O=C(OCc1ccccc1)*; NHNH2 = NN*

Sequence of Cdc42 (P60953 whole entry): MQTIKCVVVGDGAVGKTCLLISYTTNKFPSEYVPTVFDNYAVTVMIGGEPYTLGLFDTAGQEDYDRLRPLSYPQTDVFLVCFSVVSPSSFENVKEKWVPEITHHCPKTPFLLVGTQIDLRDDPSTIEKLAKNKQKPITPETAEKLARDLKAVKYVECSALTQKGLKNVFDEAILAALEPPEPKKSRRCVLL

Consider `CC1(C)OCC(C2OC(O)C3OC(C)(C)OC32)O1` (stereo not shown) [NSC25268], for which the “% ZCL367 (inhibitor activity)” value is recorded as 64.92%. On to `OCN1CCC2N(CO)CCC3N(CO)CCC1N23` (stereo not shown) [NSC81461], for which the “% ZCL278 (with GEF)” value was 92.160% and the “% ZCL278 (without GEF)” value is 15.832%. For `O=c1[nH]cc(C2OCC(O)C(O)C2O)c(=O)[nH]1` (stereo not shown) [NSC94024] the same measures were 96.844% and 34.327%. For `Cc1cn(C2OC(C(O)C(N)=O)C(O)C2O)c(=O)[nH]c1=O` (stereo not shown) [NSC111600] the same measures were 185.829% and 9.098%. On to `NC1C=CN(C2OC(CO)C(O)C2O)C(=O)N1O` (stereo not shown) [NSC128731], for which the “% ZCL278 (activator activity)” value was 108.28%. On to `NNC(=O)C(Cc1cnc[nH]1)NC(=O)CNC(=O)C(CSC(c1ccccc1)(c1ccccc1)c1ccccc1)NC(=O)OCc1ccccc1` (stereo not drawn) [NSC129911] (Cbz-Cys(Trt)-Gly-His-NHNH2; configuration not given here), for which the “% ZCL278 (with GEF)” value was 96.611% and the “% ZCL278 (without GEF)” value worked out at 31.919%. For `CC1(C)OC2COC(c3[nH]nc(C(N)=O)c3C(=O)N=[N+]=[N-])C2O1` (stereo not shown) [NSC136024] the same measures were 82.316% and 20.812%. In the case of `NC(=O)c1[nH]nc(C2OC(CO)C(O)C2O)c1O` (stereo not shown) [NSC143095], the “% ZCL367 (inhibitor activity)” value is 62.98%.

As to `NS(=O)(=O)c1ccc(NC2OCC(O)C(O)C2O)cc1` (stereo not shown) [NSC158437], the “% ZCL278 (with GEF)” value was 127.593% and the “% ZCL278 (without GEF)” value was 12.229%. `Cc1c2oc3c(C)ccc(C(=O)NC(C(N)=O)C(C)O)c3nc-2c(C(=O)NC(C(N)=O)C(C)O)c(N)c1=O` (stereo not shown) [NSC407188]: the “% ZCL367 (inhibitor activity)” value was 70.58%.

For the molecule `O=C(CCCN1C(=O)/C(=C2\SC(=S)N(CCCC(=O)Nc3ccccc3O)C2=O)SC1=S)Nc1ccccc1O` [ZCL1100], the “% ZCL367 (inhibitor activity)” value was determined as 29.97%. The same measure, in the same setting: for `CCCCCn1c(O)c(C(=O)Nc2ccccc2S(N)(=O)=O)c(=O)c2ccccc21` [ZCL1105] the value was 3.42%.

With `O=C1C2C(C(=O)N1/N=C/c1c(O)ccc3ccccc13)[C@H]1C=CC2C12CC2` (stereo partly shown) [ZCL1107], the “% ZCL367 (inhibitor activity)” value was 62.37%. In the case of `O=C1/C(=C/c2ccc(O)c(O)c2)SC(=S)N1Nc1ccccc1` [ZCL1109], the “% ZCL367 (inhibitor activity)” value is reported as 55.74%. For the molecule `O=C(CCCN1C(=O)/C(=C2\SC(=S)N(CCCC(=O)Nc3ccccc3O)C2=O)SC1=S)Nc1ccccc1O` [ZCL1110], the “% ZCL367 (inhibitor activity)” value was found to be 104.15%. Still for that read-out and setting: the value for `O=c1c2ccccc2nc(/C=C/c2c(O)ccc3ccccc23)n1-c1ccc(O)cc1` [ZCL1111] was 109.35%; that for `OCCNC[C@H](O)Cn1c(-c2ccccc2)c(-c2ccccc2)c2ccc3ccccc3c21` [ZCL1115] was 27.33%. The same measure, in the same setting: the value for `O=C(CSCc1ccccc1)Nc1ccc(C(=O)O)cc1NC(=O)CSCc1ccccc1` [ZCL1117] was 74.15%; that for `NC(=O)c1cc([N+](=O)[O-])ccc1NCCN1C(=O)C2C(C1=O)[C@H]1C=C[C@@H]2C1` (stereo partly shown) [ZCL1118] was 46.77%. On to `O=C(CCN1C(=O)C2C(C1=O)[C@H]1C=C[C@@H]2C1)Nc1cccc2ccccc12` (stereo partly shown) [ZCL1119], for which the “% ZCL278 (with GEF)” value was 103.291% and the “% ZCL278 (without GEF)” value worked out at 59.173%. For `C[C@H](Oc1cccc(Cl)c1)C(=O)Nc1ccccc1NC(=O)[C@H](C)Oc1cccc(Cl)c1` [ZCL1120], the “% ZCL367 (inhibitor activity)” value is listed as 81.19%. On to `CC(=O)Nc1ccc(Nc2nc(-c3ccc(O)cc3)cs2)cc1` [ZCL1124], for which the “% ZCL278 (with GEF)” value worked out at 97.542% and the “% ZCL278 (without GEF)” value turned out to be 63.125%. In the case of `NC(=O)c1ccsc1NC(=O)c1cc(-c2cccc(Br)c2)nc2ccc(Cl)cc12` [ZCL1125], the “% ZCL367 (inhibitor activity)” value worked out at 28.67%. On the same count and under the same terms, the value for `O=C(Nc1ccc(S(=O)(=O)Nc2cccc3ccccc23)cc1)Nc1cccc(Cl)c1` [ZCL1127] was 98.5%; that for `O=C(C(=O)N1CCC(O)(CO)CC1)c1c(-c2ccccc2)cc2ccccn12` [ZCL1137] was 93.54%. For `NC(=O)CCN(Cc1ccccc1)C(=O)Nc1cccc(OC2CCCC2)c1` [ZCL1139], the “% ZCL278 (activator activity)” value came to 100.29% and the “% ZCL367 (inhibitor activity)” value is listed as 88.55%. On to `O=C(c1ccccc1O)N1CCOc2c(O)cc(-c3nc4ccccc4s3)cc2C1` [ZCL1142], for which the “% ZCL278 (with GEF)” value was determined as 98.499% and the “% ZCL278 (without GEF)” value came to 69.001%. The corresponding values for `c1ccc(-c2nc3c(c(NCc4cn5ccsc5n4)n2)CCNC3)cc1` [ZCL1143] are 96.811% and 45.056%. Regarding `c1ccc(-c2nc3c(c(NCc4cn5ccsc5n4)n2)CCNC3)cc1` [ZCL1144], the “% ZCL278 (activator activity)” value was 454.3%.
